Experimental data from ChEMBL document CHEMBL1201862, “PubChem BioAssay data set” (2004).
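Five concentrations, 48 hours, 96-well plates. The concentration for 50% growth inhibition is given as GI50.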 Calls of active or inactive are those of the source. No stated cut-off is given here; in the data, active = GI50 up to about 1.1 µM and inactive = higher.

Assays:
Test in all cases: growth of human tumour cells (NCI), 48 h
786-0 = system: 786-0
A498 = system: A498
A549 = system: A549
ACHN = system: ACHN
BT-549 = system: BT-549
CAKI-1 = system: CAKI-1
CCRF-CEM = system: CCRF-CEM
COLO 205 = system: COLO 205
DU-145 = system: DU-145
EKVX = system: EKVX
HCC 2998 = system: HCC 2998
HCT-116 = system: HCT-116
HCT-15 = system: HCT-15
HL-60 = system: HL-60
HOP-62 = system: HOP-62
HOP-92 = system: HOP-92
HT-29 = system: HT-29
Hs-578T = system: Hs-578T
IGROV-1 = system: IGROV-1
K562 = system: K562
KM12 = system: KM12
LOX IMVI = system: LOX IMVI
M14 = system: M14
MCF7 = system: MCF7
MDA-MB-231 = system: MDA-MB-231
MDA-MB-435 = system: MDA-MB-435
MDA-N = system: MDA-N
MOLT-4 = system: MOLT-4
Malme-3M = system: Malme-3M
NCI-H226 = system: NCI-H226
NCI-H23 = system: NCI-H23
NCI-H460 = system: NCI-H460
NCI-H522 = system: NCI-H522
NCI/ADR-RES = system: NCI/ADR-RES
OVCAR-3 = system: OVCAR-3
OVCAR-4 = system: OVCAR-4
OVCAR-5 = system: OVCAR-5
OVCAR-8 = system: OVCAR-8
PC-3 = system: PC-3
RPMI-8226 = system: RPMI-8226
RXF 393 = system: RXF 393
SF-268 = system: SF-268
SF-295 = system: SF-295
SF-539 = system: SF-539
SK-MEL-28 = system: SK-MEL-28
SK-MEL-2 = system: SK-MEL-2
SK-MEL-5 = system: SK-MEL-5
SK-OV-3 = system: SK-OV-3
SN12C = system: SN12C
SNB-19 = system: SNB-19
SR = system: SR
SW-620 = system: SW-620
T47D = system: T47D
TK-10 = system: TK-10
U-251 = system: U-251
UACC-257 = system: UACC-257
UO-31 = system: UO-31
UACC-62 = system: UACC-62
SNB-75 = system: SNB-75

COC(=O)c1c(O)ccc2c1c1c(n2CCc2ccccc2)C(=O)c2ccccc2C1=O
GI50 (786-0): 16.7 µM (inactive) | GI50 (A498): 16.6 µM (inactive) | GI50 (A549): 8.97 µM (inactive) | GI50 (ACHN): 11.9 µM (inactive) | GI50 (BT-549): 15.4 µM (inactive) | GI50 (CAKI-1): 13.1 µM (inactive) | GI50 (CCRF-CEM): 12.8 µM (inactive) | GI50 (COLO 205): 1.83 µM (inactive) | GI50 (DU-145): 14.4 µM (inactive) | GI50 (EKVX): 20.7 µM (inactive) | GI50 (HCC 2998): 2.48 µM (inactive) | GI50 (HCT-116): 10.9 µM (inactive) | GI50 (HCT-15): 9.35 µM | GI50 (HL-60): 17.8 µM (inactive) | GI50 (HOP-62): 21.4 µM (inactive) | GI50 (HOP-92): 16.3 µM (inactive) | GI50 (HT-29): 11.8 µM (inactive) | GI50 (Hs-578T): 13.3 µM (inactive) | GI50 (IGROV-1): 11.9 µM (inactive) | GI50 (K562): 8.38 µM (inactive) | GI50 (KM12): 12.2 µM (inactive) | GI50 (LOX IMVI): 15.7 µM (inactive) | GI50 (M14): 15.4 µM (inactive) | GI50 (MCF7): 9.02 µM (inactive) | GI50 (MDA-MB-231): 14.6 µM (inactive) | GI50 (MDA-MB-435): 7.03 µM (inactive) | GI50 (MDA-N): 10.2 µM (inactive) | GI50 (MOLT-4): 4.06 µM (inactive) | GI50 (Malme-3M): 12.1 µM (inactive) | GI50 (NCI-H226): 14.6 µM (inactive) | GI50 (NCI-H23): 11.6 µM (inactive) | GI50 (NCI-H460): 4.11 µM (inactive) | GI50 (NCI-H522): 7.08 µM (inactive) | GI50 (NCI/ADR-RES): 6.9 µM (inactive) | GI50 (OVCAR-3): 6.7 µM (inactive) | GI50 (OVCAR-4): 6.79 µM (inactive) | GI50 (OVCAR-5): 20.2 µM (inactive) | GI50 (OVCAR-8): 8.18 µM (inactive) | GI50 (PC-3): 11.6 µM (inactive) | GI50 (RPMI-8226): 7.03 µM (inactive) | GI50 (RXF 393): 13.3 µM (inactive) | GI50 (SF-268): 12.7 µM (inactive) | GI50 (SF-295): 19.1 µM (inactive) | GI50 (SF-539): 16.7 µM (inactive) | GI50 (SK-MEL-28): 16 µM (inactive) | GI50 (SK-MEL-2): 15.1 µM (inactive) | GI50 (SK-MEL-5): 12.5 µM (inactive) | GI50 (SK-OV-3): 18.3 µM (inactive) | GI50 (SN12C): 12 µM (inactive) | GI50 (SNB-19): 17.5 µM (inactive) | GI50 (SR): 5.28 µM (inactive) | GI50 (SW-620): 13.2 µM (inactive) | GI50 (T47D): 5.47 µM (inactive) | GI50 (TK-10): 11.6 µM (inactive) | GI50 (U-251): 12.7 µM (inactive) | GI50 (UACC-257): 17.7 µM (inactive) | GI50 (UO-31): 10.8 µM (inactive)

COc1ccc(N(C(=O)Nc2ccc(Cl)c(Cl)c2)c2ccccc2)cc1
GI50 (786-0): > 10 µM (inactive) | GI50 (A498): > 10 µM (inactive) | GI50 (A549): > 10 µM (inactive) | GI50 (ACHN): > 10 µM (inactive) | GI50 (BT-549): > 10 µM (inactive) | GI50 (CAKI-1): > 10 µM (inactive) | GI50 (CCRF-CEM): > 10 µM (inactive) | GI50 (COLO 205): > 10 µM (inactive) | GI50 (DU-145): > 10 µM (inactive) | GI50 (EKVX): > 10 µM (inactive) | GI50 (HCC 2998): > 10 µM (inactive) | GI50 (HCT-116): > 10 µM (inactive) | GI50 (HCT-15): > 10 µM | GI50 (HL-60): > 10 µM (inactive) | GI50 (HOP-62): > 10 µM (inactive) | GI50 (HOP-92): > 10 µM (inactive) | GI50 (HT-29): > 10 µM (inactive) | GI50 (Hs-578T): > 10 µM (inactive) | GI50 (IGROV-1): > 10 µM (inactive) | GI50 (K562): > 10 µM (inactive) | GI50 (KM12): > 10 µM (inactive) | GI50 (LOX IMVI): > 10 µM (inactive) | GI50 (M14): > 10 µM (inactive) | GI50 (MCF7): > 10 µM (inactive) | GI50 (MDA-MB-231): > 10 µM (inactive) | GI50 (MDA-MB-435): > 10 µM (inactive) | GI50 (MDA-N): > 10 µM (inactive) | GI50 (MOLT-4): > 10 µM (inactive) | GI50 (Malme-3M): > 10 µM (inactive) | GI50 (NCI-H226): > 10 µM (inactive) | GI50 (NCI-H23): > 10 µM (inactive) | GI50 (NCI-H460): > 10 µM (inactive) | GI50 (NCI-H522): > 10 µM (inactive) | GI50 (NCI/ADR-RES): > 10 µM (inactive) | GI50 (OVCAR-3): > 10 µM (inactive) | GI50 (OVCAR-4): > 10 µM (inactive) | GI50 (OVCAR-5): > 10 µM (inactive) | GI50 (OVCAR-8): > 10 µM (inactive) | GI50 (PC-3): > 10 µM (inactive) | GI50 (RXF 393): > 10 µM (inactive) | GI50 (SF-268): > 10 µM (inactive) | GI50 (SF-295): > 10 µM (inactive) | GI50 (SF-539): > 10 µM (inactive) | GI50 (SK-MEL-28): > 10 µM (inactive) | GI50 (SK-MEL-5): > 10 µM (inactive) | GI50 (SK-OV-3): > 10 µM (inactive) | GI50 (SN12C): > 10 µM (inactive) | GI50 (SNB-19): > 10 µM (inactive) | GI50 (SR): > 10 µM (inactive) | GI50 (SW-620): > 10 µM (inactive) | GI50 (T47D): > 10 µM (inactive) | GI50 (TK-10): > 10 µM (inactive) | GI50 (U-251): > 10 µM (inactive) | GI50 (UACC-257): > 10 µM (inactive) | GI50 (UACC-62): > 10 µM (inactive) | GI50 (UO-31): > 10 µM (inactive)

COC(=O)[C@H]1C=C[C@H](OC2OC(COC(C)=O)C(OC(C)=O)C(OC(C)=O)C2OC(C)=O)n2c(=O)n(-c3ccccc3)c(=O)n21 (stereo partly specified)
GI50 (786-0): 2.45 µM (inactive) | GI50 (A498): 4.97 µM (inactive) | GI50 (A549): 17.4 µM (inactive) | GI50 (ACHN): 1.66 µM (inactive) | GI50 (BT-549): 3.04 µM (inactive) | GI50 (CAKI-1): 0.935 µM (active) | GI50 (CCRF-CEM): 2.25 µM (inactive) | GI50 (COLO 205): 1.7 µM (inactive) | GI50 (DU-145): 6.08 µM (inactive) | GI50 (EKVX): 2.59 µM (inactive) | GI50 (HCC 2998): 2.23 µM (inactive) | GI50 (HCT-116): 2.96 µM (inactive) | GI50 (HCT-15): 1.41 µM | GI50 (HL-60): 0.406 µM (active) | GI50 (HOP-62): 8.55 µM (inactive) | GI50 (HOP-92): 1.78 µM (inactive) | GI50 (HT-29): 2.61 µM (inactive) | GI50 (Hs-578T): 2.38 µM (inactive) | GI50 (IGROV-1): 4.98 µM (inactive) | GI50 (K562): 1.77 µM (inactive) | GI50 (KM12): 11 µM (inactive) | GI50 (LOX IMVI): 1.84 µM (inactive) | GI50 (M14): 2.7 µM (inactive) | GI50 (MCF7): 2.42 µM (inactive) | GI50 (MDA-MB-231): 6.97 µM (inactive) | GI50 (MDA-MB-435): 4.38 µM (inactive) | GI50 (MDA-N): 4.68 µM (inactive) | GI50 (MOLT-4): 2.49 µM (inactive) | GI50 (NCI-H226): 7.06 µM (inactive) | GI50 (NCI-H23): 4.99 µM (inactive) | GI50 (NCI-H460): 2.92 µM (inactive) | GI50 (NCI-H522): 0.222 µM (active) | GI50 (NCI/ADR-RES): 6.07 µM (inactive) | GI50 (OVCAR-3): 2.91 µM (inactive) | GI50 (OVCAR-4): 2.87 µM (inactive) | GI50 (OVCAR-5): 9.18 µM (inactive) | GI50 (OVCAR-8): 5.78 µM (inactive) | GI50 (PC-3): 10.7 µM (inactive) | GI50 (RPMI-8226): 1.66 µM (inactive) | GI50 (RXF 393): 1.82 µM (inactive) | GI50 (SF-268): 3.67 µM (inactive) | GI50 (SF-295): 13.1 µM (inactive) | GI50 (SF-539): 2.09 µM (inactive) | GI50 (SK-MEL-28): 2.49 µM (inactive) | GI50 (SK-MEL-2): 12.1 µM (inactive) | GI50 (SK-MEL-5): 2.12 µM (inactive) | GI50 (SK-OV-3): 18.4 µM (inactive) | GI50 (SN12C): 6.52 µM (inactive) | GI50 (SNB-19): 16.7 µM (inactive) | GI50 (SNB-75): 12.1 µM (inactive) | GI50 (SR): 2.03 µM (inactive) | GI50 (SW-620): 2.18 µM (inactive) | GI50 (T47D): 3.48 µM (inactive) | GI50 (TK-10): 4.8 µM (inactive) | GI50 (U-251): 8.75 µM (inactive) | GI50 (UACC-257): 7.52 µM (inactive) | GI50 (UACC-62): 1.54 µM (inactive) | GI50 (UO-31): 2.04 µM (inactive)
